Measurements published in PubChem BioAssay AID1963839 (Molecular Pharmacology Branch, DTP, NCI, 2024).

System: 817829-284-R-J1-PDC complex spheroid viability
Assay: Anticancer human tumor 817829-284-R-J1-PDC patient-derived colon adenocarcinoma cell line growth inhibition [POLQ]
Conditions: for IC50: curve of first compound; for viability, T/C: stronger effect = lower value
Method in brief: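 Three-cell-type spheroids modelling solid tumor plus stroma served as the readout system; POL inhibitors were tested individually and in combination, concentration ranges set by clinical Cmax where known.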

[1] = second compound 0.0316 µM, first compound 0.0316 µM
[2] = second compound 0.0316 µM, first compound 0.1 µM
[3] = second compound 0.1 µM, first compound 0.0316 µM
[4] = second compound 0.1 µM, first compound 0.1 µM
[5] = second compound 0.316 µM, first compound 0.0316 µM
[6] = second compound 0.316 µM, first compound 0.1 µM
[7] = second compound 1 µM, first compound 0.0316 µM
[8] = second compound 1 µM, first compound 0.1 µM
[9] = second compound 3.16 µM, first compound 0.0316 µM
[10] = second compound 3.16 µM, first compound 0.1 µM
[11] = second compound 10 µM, first compound 0.0316 µM
[12] = second compound 10 µM, first compound 0.1 µM
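Note: spheroids exposed to compounds for 7 days.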
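Throughout, for viability, T/C: 100% = DMSO vehicle-treated spheroids.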

## CC[C@@]1(O)C(=O)OCc2c1cc1n(c2=O)Cc2cc3c(CN(C)C)c(O)ccc3nc2-1 + Nc1ccc(C#CCN(C(=O)Cc2ncc(C(F)(F)F)cc2C(F)(F)F)c2ccc(F)cc2)nn1
Second compound 0.0316 µM
  IC50: 8.46 nM
Second compound 0.1 µM
  IC50: 9.72 nM
Second compound 0.316 µM
  IC50: 11 nM
Second compound 1 µM
  IC50: 8.84 nM
Second compound 3.16 µM
  IC50: 12 nM
Second compound 10 µM
  IC50: 6.8 nM
Second compound 0.0316 µM, first compound 0.000316 µM
  viability, T/C: 91.3%
Second compound 0.0316 µM, first compound 0.001 µM
  viability, T/C: 99%
Second compound 0.0316 µM, first compound 0.00316 µM
  viability, T/C: 85.9%
Second compound 0.0316 µM, first compound 0.01 µM
  viability, T/C: 43.2%
[1]
  viability, T/C: 24.2%
[2]
  viability, T/C: 15.9%
Second compound 0.1 µM, first compound 0.000316 µM
  viability, T/C: 90.2%
Second compound 0.1 µM, first compound 0.001 µM
  viability, T/C: 86%
Second compound 0.1 µM, first compound 0.00316 µM
  viability, T/C: 88.2%
Second compound 0.1 µM, first compound 0.01 µM
  viability, T/C: 48.9%
[3]
  viability, T/C: 20.9%
[4]
  viability, T/C: 17.3%
Second compound 0.316 µM, first compound 0.000316 µM
  viability, T/C: 106%
Second compound 0.316 µM, first compound 0.001 µM
  viability, T/C: 93.3%
Second compound 0.316 µM, first compound 0.00316 µM
  viability, T/C: 85%
Second compound 0.316 µM, first compound 0.01 µM
  viability, T/C: 54.4%
[5]
  viability, T/C: 21.3%
[6]
  viability, T/C: 17.9%
Second compound 1 µM, first compound 0.000316 µM
  viability, T/C: 111%
Second compound 1 µM, first compound 0.001 µM
  viability, T/C: 115%
Second compound 1 µM, first compound 0.00316 µM
  viability, T/C: 86.6%
Second compound 1 µM, first compound 0.01 µM
  viability, T/C: 45.5%
[7]
  viability, T/C: 24.4%
[8]
  viability, T/C: 15.7%
Second compound 3.16 µM, first compound 0.000316 µM
  viability, T/C: 95.1%
Second compound 3.16 µM, first compound 0.001 µM
  viability, T/C: 94.3%
Second compound 3.16 µM, first compound 0.00316 µM
  viability, T/C: 82%
Second compound 3.16 µM, first compound 0.01 µM
  viability, T/C: 57.2%
[9]
  viability, T/C: 20.1%
[10]
  viability, T/C: 13.9%
Second compound 10 µM, first compound 0.000316 µM
  viability, T/C: 93.8%
Second compound 10 µM, first compound 0.001 µM
  viability, T/C: 91.2%
Second compound 10 µM, first compound 0.00316 µM
  viability, T/C: 62.1%
Second compound 10 µM, first compound 0.01 µM
  viability, T/C: 43.2%
[11]
  viability, T/C: 25.6%
[12]
  viability, T/C: 15.1%

## CC(=O)O[C@H]1C(=O)[C@@]2(C)[C@H]([C@H](OC(=O)c3ccccc3)[C@]3(O)C[C@H](OC(=O)[C@H](O)[C@@H](NC(=O)c4ccccc4)c4ccccc4)C(C)=C1C3(C)C)[C@]1(OC(C)=O)CO[C@@H]1C[C@@H]2O + Nc1ccc(C#CCN(C(=O)Cc2ncc(C(F)(F)F)cc2C(F)(F)F)c2ccc(F)cc2)nn1
Second compound 0.0316 µM
  IC50: < 9.49 nM
Second compound 0.1 µM
  IC50: < 9.49 nM
Second compound 0.316 µM
  IC50: < 9.49 nM
Second compound 1 µM
  IC50: < 9.49 nM
Second compound 3.16 µM
  IC50: < 9.49 nM
Second compound 10 µM
  IC50: < 9.49 nM
Second compound 0.0316 µM, first compound 0.00949 µM
  viability, T/C: 5.03%
Second compound 0.0316 µM, first compound 0.03 µM
  viability, T/C: 3.67%
Second compound 0.0316 µM, first compound 0.0949 µM
  viability, T/C: 3.6%
Second compound 0.0316 µM, first compound 0.3 µM
  viability, T/C: 4.54%
Second compound 0.0316 µM, first compound 0.949 µM
  viability, T/C: 3.38%
Second compound 0.0316 µM, first compound 3 µM
  viability, T/C: 3.49%
Second compound 0.1 µM, first compound 0.00949 µM
  viability, T/C: 4.54%
Second compound 0.1 µM, first compound 0.03 µM
  viability, T/C: 3.69%
Second compound 0.1 µM, first compound 0.0949 µM
  viability, T/C: 3.4%
Second compound 0.1 µM, first compound 0.3 µM
  viability, T/C: 3.32%
Second compound 0.1 µM, first compound 0.949 µM
  viability, T/C: 3.65%
Second compound 0.1 µM, first compound 3 µM
  viability, T/C: 3.64%
Second compound 0.316 µM, first compound 0.00949 µM
  viability, T/C: 4.71%
Second compound 0.316 µM, first compound 0.03 µM
  viability, T/C: 3.72%
Second compound 0.316 µM, first compound 0.0949 µM
  viability, T/C: 3.26%
Second compound 0.316 µM, first compound 0.3 µM
  viability, T/C: 3.47%
Second compound 0.316 µM, first compound 0.949 µM
  viability, T/C: 3.51%
Second compound 0.316 µM, first compound 3 µM
  viability, T/C: 3.52%
Second compound 1 µM, first compound 0.00949 µM
  viability, T/C: 4.2%
Second compound 1 µM, first compound 0.03 µM
  viability, T/C: 4.2%
Second compound 1 µM, first compound 0.0949 µM
  viability, T/C: 3.64%
Second compound 1 µM, first compound 0.3 µM
  viability, T/C: 3.16%
Second compound 1 µM, first compound 0.949 µM
  viability, T/C: 3.49%
Second compound 1 µM, first compound 3 µM
  viability, T/C: 3.91%
Second compound 3.16 µM, first compound 0.00949 µM
  viability, T/C: 3.91%
Second compound 3.16 µM, first compound 0.03 µM
  viability, T/C: 3.81%
Second compound 3.16 µM, first compound 0.0949 µM
  viability, T/C: 3.99%
Second compound 3.16 µM, first compound 0.3 µM
  viability, T/C: 3.89%
Second compound 3.16 µM, first compound 0.949 µM
  viability, T/C: 3.75%
Second compound 3.16 µM, first compound 3 µM
  viability, T/C: 3.61%
Second compound 10 µM, first compound 0.00949 µM
  viability, T/C: 4.68%
Second compound 10 µM, first compound 0.03 µM
  viability, T/C: 3.73%
Second compound 10 µM, first compound 0.0949 µM
  viability, T/C: 3.81%
Second compound 10 µM, first compound 0.3 µM
  viability, T/C: 3.76%
Second compound 10 µM, first compound 0.949 µM
  viability, T/C: 3.38%
Second compound 10 µM, first compound 3 µM
  viability, T/C: 3.83%

## CC1COCCN1c1cc(C2(S(C)(=N)=O)CC2)nc(-c2ccnc3[nH]ccc23)n1 (stereo unspecified) + COC1C(OC(N)=O)C(O)C(Oc2ccc3c(O)c(NC(=O)c4ccc(O)c(CC=C(C)C)c4)c(=O)oc3c2C)OC1(C)C
Second compound 0.0316 µM
  IC50: 338 nM
Second compound 0.1 µM
  IC50: 422 nM
Second compound 0.316 µM
  IC50: 363 nM
Second compound 1 µM
  IC50: 440 nM
Second compound 3.16 µM
  IC50: 169 nM
Second compound 10 µM
  IC50: 241 nM
[1]
  viability, T/C: 85.6%
[2]
  viability, T/C: 74.6%
Second compound 0.0316 µM, first compound 0.316 µM
  viability, T/C: 53.1%
Second compound 0.0316 µM, first compound 1 µM
  viability, T/C: 19.9%
Second compound 0.0316 µM, first compound 3.16 µM
  viability, T/C: 6.56%
Second compound 0.0316 µM, first compound 10 µM
  viability, T/C: 4.6%
[3]
  viability, T/C: 98.5%
[4]
  viability, T/C: 105%
Second compound 0.1 µM, first compound 0.316 µM
  viability, T/C: 58.7%
Second compound 0.1 µM, first compound 1 µM
  viability, T/C: 19.9%
Second compound 0.1 µM, first compound 3.16 µM
  viability, T/C: 7.9%
Second compound 0.1 µM, first compound 10 µM
  viability, T/C: 4.68%
[5]
  viability, T/C: 92.7%
[6]
  viability, T/C: 76.3%
Second compound 0.316 µM, first compound 0.316 µM
  viability, T/C: 56.8%
Second compound 0.316 µM, first compound 1 µM
  viability, T/C: 21%
Second compound 0.316 µM, first compound 3.16 µM
  viability, T/C: 6.66%
Second compound 0.316 µM, first compound 10 µM
  viability, T/C: 4.27%
[7]
  viability, T/C: 94.5%
[8]
  viability, T/C: 110%
Second compound 1 µM, first compound 0.316 µM
  viability, T/C: 59.2%
Second compound 1 µM, first compound 1 µM
  viability, T/C: 23.4%
Second compound 1 µM, first compound 3.16 µM
  viability, T/C: 9.79%
Second compound 1 µM, first compound 10 µM
  viability, T/C: 4.86%
[9]
  viability, T/C: 89.9%
[10]
  viability, T/C: 60.2%
Second compound 3.16 µM, first compound 0.316 µM
  viability, T/C: 37.9%
Second compound 3.16 µM, first compound 1 µM
  viability, T/C: 20.8%
Second compound 3.16 µM, first compound 3.16 µM
  viability, T/C: 8.42%
Second compound 3.16 µM, first compound 10 µM
  viability, T/C: 4.19%
[11]
  viability, T/C: 111%
[12]
  viability, T/C: 63.3%
Second compound 10 µM, first compound 0.316 µM
  viability, T/C: 51.7%
Second compound 10 µM, first compound 1 µM
  viability, T/C: 24.6%
Second compound 10 µM, first compound 3.16 µM
  viability, T/C: 9.19%
Second compound 10 µM, first compound 10 µM
  viability, T/C: 4.6%
